Data: patent US20060183778A1, “Osteogenesis-promotion enhancer and method of screening the same” (priority 2003, published 2006)

Key:
Format in all cases: cell-based
[1] = tested on: C2C12 cells; assay: Test Example 4: influence of serum (FBS) concentration on ALP activity of C2C12 cells; settings: compound A 1 μM, rhBMP-4 50 ng/ml, FBS 2.5%, 5%, 10% or 20%, 9 days
Protocol: After the respective cells were cultured for 9 days, a degree of progression of bone differentiation was examined by staining with an alkaline phosphatase (ALP) staining kit #85-3R (Sigma). […] Regarding the respective cells, the ALP activity was measured in the same manner as in Test Example 1.

[2] = tested on: Human mesenchymal stem cells (hMSCs); assay: Test Example 2: calcium accumulation of human mesenchymal stem cells by the von Kossa method; settings: serum-free medium, compound A 1 μM with rhBMP-4 50 ng/ml
Protocol: (§1) Quantitative analysis of an ALP activity was conducted in the same manner as in Test Example 1. Accumulation of calcium was measured through visualization by the von Kossa method. That is, the respective cells were immobilized with a phosphate buffered saline (PBS) containing 3% glutaraldehyde, and washed with PBS and with distilled water. The immobilized cells were reacted with 2.5% silver nitrate for 60 minutes while applying light, then washed, and developed with 0.5% hydroquinone for 2 minutes. Excess silver was washed away with a 5% sodium thiosulfate solution.

[3] = tested on: Human mesenchymal stem cells (hMSCs); assay: Test Example 2: ALP activity of human mesenchymal stem cells; settings: serum-free medium, compound A 1 μM with rhBMP-4 50 ng/ml
Protocol: as §1, with “After the respective cells were cultured for 9 days, a degree of progression of bone differentiation was examined by staining with an alkaline phosphatase (ALP) staining kit #85-3R (Sigma). […] Quantitative” for “Quantitative”

[4] = tested on: C2C12 cells; assay: Test Example 1: bone differentiation of C2C12 cells, alkaline phosphatase (ALP) staining and ALP activity; settings: 9 days
Protocol: After the respective cells were cultured for 9 days, a degree of progression of bone differentiation was examined by staining with an alkaline phosphatase (ALP) staining kit #85-3R (Sigma). Quantitative analysis of an ALP activity was conducted according to the Fujii et al. method (e.g., see Fujii M et al, “Mol Biol Cell.” published by American Society for Cell Biology (U.S.A.), 1999, vol. 10, p. 3801-3813] by using a Sigma Fast p-nitrophenyl phosphate tablet set. A protein concentration of each extract was measured by a DC protein assay (Bio-Rad) using a bovine serum albumin as a standard substance.

NC(=O)c1ccc(-c2nc(-c3ccc4c(c3)OCO4)c(-c3ccccn3)[nH]2)cc1 [compound A, 4-(4-benzo[1,3]dioxol-5-yl-5-pyridin-2-yl-1H-imidazol-2-yl)benzamide]
activity to enhance the acceleration of osteogenesis (ALP staining / ALP activity) as a function of FBS concentration [1]: decreased with the increase in FBS concentration | calcium accumulation induced with rhBMP-4 (von Kossa staining) [2]: further enhanced | increase in ALP activity induced with rhBMP-4 [3]: further enhanced | activity of accelerating bone differentiation by stimulation of rhBMP-4 (ALP staining / ALP activity) ([4]; compound A 1 μM with rhBMP-4 50 ng/ml, 5% fetal bovine serum): enhanced | activity of accelerating bone differentiation of C2C12 cells (ALP staining) ([4]; compound A (1 μM) alone, without rhBMP-4, 5% fetal bovine serum): not observed
